In patent US12071392B2, “Aminoadamantyl nitrate compounds and their use to treat CNS disorders” (Panorama Research, Inc., priority 2017, dated 2024):
Like-named read-outs stand apart in the source and are kept apart here.

How the values were obtained:
[1] = molecular target: T1, NMDA glutamate receptors NR1/NR2B encoded by the human GRIN1 and GRIN2B genes (Homo sapiens, UniProt Q05586+Q13224); test: IonWorks Barracuda automated patch clamp, inhibition of NR1/NR2B receptors in HEK293 cells; format: cell-based; conditions: for IC50: co-application with EC50 L-glutamate, −40 mV, 8-point concentration-response; for Effect on NR1/NR2B glutamate receptors (in words): patch clamp
T1 construct: expressed in transfected cells
T1 sequence (Q13224 27-1484, other chains not shown): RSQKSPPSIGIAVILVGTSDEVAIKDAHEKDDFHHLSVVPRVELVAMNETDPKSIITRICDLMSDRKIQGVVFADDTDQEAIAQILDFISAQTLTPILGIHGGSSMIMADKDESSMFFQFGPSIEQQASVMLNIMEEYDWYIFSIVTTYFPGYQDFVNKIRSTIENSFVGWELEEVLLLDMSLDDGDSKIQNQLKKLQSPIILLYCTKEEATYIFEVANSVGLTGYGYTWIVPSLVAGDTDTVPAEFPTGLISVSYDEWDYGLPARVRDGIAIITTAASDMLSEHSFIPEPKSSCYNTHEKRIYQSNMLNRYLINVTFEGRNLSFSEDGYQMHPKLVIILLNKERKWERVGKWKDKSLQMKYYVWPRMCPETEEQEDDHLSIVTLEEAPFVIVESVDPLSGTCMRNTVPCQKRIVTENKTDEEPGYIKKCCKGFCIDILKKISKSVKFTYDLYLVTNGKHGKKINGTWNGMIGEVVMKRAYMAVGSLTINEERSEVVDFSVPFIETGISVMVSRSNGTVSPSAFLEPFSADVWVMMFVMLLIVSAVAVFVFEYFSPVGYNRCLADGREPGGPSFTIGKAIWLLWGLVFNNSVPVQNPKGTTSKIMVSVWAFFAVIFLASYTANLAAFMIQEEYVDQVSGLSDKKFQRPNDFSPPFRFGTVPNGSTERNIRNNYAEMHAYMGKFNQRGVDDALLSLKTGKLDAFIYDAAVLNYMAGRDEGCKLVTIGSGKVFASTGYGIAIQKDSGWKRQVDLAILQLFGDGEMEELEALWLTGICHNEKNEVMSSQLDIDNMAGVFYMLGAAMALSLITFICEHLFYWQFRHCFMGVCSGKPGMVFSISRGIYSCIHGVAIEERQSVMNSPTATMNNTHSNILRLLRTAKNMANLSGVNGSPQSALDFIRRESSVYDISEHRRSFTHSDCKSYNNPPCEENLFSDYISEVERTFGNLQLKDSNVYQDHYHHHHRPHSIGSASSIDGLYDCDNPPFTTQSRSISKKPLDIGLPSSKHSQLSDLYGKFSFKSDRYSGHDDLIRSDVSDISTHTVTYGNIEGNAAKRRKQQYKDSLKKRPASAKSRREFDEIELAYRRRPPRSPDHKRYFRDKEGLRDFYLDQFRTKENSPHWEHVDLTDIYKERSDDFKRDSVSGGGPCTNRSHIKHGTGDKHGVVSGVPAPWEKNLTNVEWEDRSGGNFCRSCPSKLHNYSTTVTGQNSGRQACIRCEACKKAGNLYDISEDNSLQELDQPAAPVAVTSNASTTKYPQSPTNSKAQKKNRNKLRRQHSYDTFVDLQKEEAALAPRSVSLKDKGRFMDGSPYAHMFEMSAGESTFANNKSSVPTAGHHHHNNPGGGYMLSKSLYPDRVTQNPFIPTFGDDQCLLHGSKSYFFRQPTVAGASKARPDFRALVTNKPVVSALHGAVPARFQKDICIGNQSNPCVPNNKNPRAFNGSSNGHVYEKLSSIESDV
Description: Compounds were tested for inhibition of NMDA receptors using NMDA glutamate receptors NR1/NR2B encoded by the human GRIN1 and GRIN2B genes, expressed in HEK293 cells (originally from ATCC, Manassas, VA). Cells were maintained in tissue culture incubators, and stocks were maintained in cryogenic storage. Cells used for electrophysiology were plated in 150-mm plastic culture dishes. HEK293 cells were transfected with the appropriate ion channel or receptor cDNA(s) encoding NR1 and NR2B. Stable transfectants were selected using the G418 and Zeocin™-resistance genes incorporated into the expression plasmid. Selection pressure was maintained with G418 and Zeocin™ in the culture medium. Cells were cultured in Dulbecco's Modified Eagle Medium/Nutrient Mixture F-12 (D-MEM/F-12) supplemented with 10% fetal bovine serum, 100 U/mL penicillin G sodium, 100 μg/mL streptomycin sulfate, 100 μg/mL Zeocin™, 5 μg/mL blasticidin, and 500 μg/mL G418.
Test compounds were evaluated in 8-point concentration-response format (8 replicate wells/concentration). All test and control solutions contained 0.3% DMSO. The test article formulations were loaded in a 384-well plate using an automated liquid handling system (SciClone ALH3000, Caliper LifeScienses).
The effects of the test compounds were evaluated using the IonWorks® Barracuda™ Automated Patch Clamp System. Intracellular solution contained 50 mM CsCl, 90 mM CsF, 2 mM MgCl2, 5 mM EGTA, and 10 mM HEPES, pH 7.2. This solution was prepared in batches and stored refrigerated. In preparation for a recording session, the intracellular solution was loaded into the intracellular compartment of the PPC planar electrode. Extracellular solution (137 mM NaCl; 1.0 mM KCl; 5 mM CaCl2); 10 mM HEPES; 10 mM glucose; pH 7.4. Patch clamp measurements were made with a holding potential of −70 mV, and the potential during compound application was −40 mV. Extracellular buffer was loaded into the PPC plate wells (11 μL per well). Cell suspension was then pipetted into the wells (9 μL per well) of the PPC planar electrode. Whole-cell recording configuration was established via patch perforation with membrane currents recorded by on-board patch clamp amplifiers. […] The application consisted of two additions of 20 μL test solution containing antagonists at 10 μL/s (2 second total application time). First addition of 2× concentrated articles were preapplied for 5 minutes before the second addition of 1× concentrated articles. Data acquisition was performed via the IonWorks® Barracuda™ software, and data was analyzed using Microsoft Excel (Microsoft Corp., Redmond, WA). Concentration-response data was fitted to a Hill equation of the following form: RESPONSE=Base+[(Max−Base)/(1+(xhalf/x)^rate)] where Base is the response at low concentrations of test article, Max is the maximum response at high concentrations, xhalf is the EC50, or IC50, the concentration of test article producing either half-maximal activation or inhibition, and rate is the Hill coefficient. Nonlinear least squares fits were made assuming a simple binding model. Fits were weighted by the standard deviation. No assumptions about the fit parameters were made; the fit parameters were determined by the algorithm.

[2] = 7 days of infusion, cited from earlier work
[3] = read-out: Steady state current IC50

Row | Structure (SMILES) | IC50 ([1]; read-out: Peak current IC50) | IC50 [1, 3] | Effect on NR1/NR2B glutamate receptors (in words) [1] | whole brain concentration higher than free concentration in serum ([2]; 20 mg/kg/day) | whole brain concentration higher than free concentration in serum ([2]; 100 mg/kg/day)
1 | CC12CC3(C)CC(CN)(C1)CC(CO[N+](=O)[O-])(C2)C3 [Cmpd 1] | 4.59 µM | 2.62 µM | – | – | –
2 | NCC1(c2cccc(O[N+](=O)[O-])c2)C2CC3CC(C2)CC1C3 (stereo not drawn) [Cmpd 2] | 73.2 µM | 47.4 µM | – | – | –
3 | CCC(O[N+](=O)[O-])C12CC3(C)CC(C)(CC(CCN)(C3)C1)C2 (stereo not drawn) [Cmpd 3] | 8.01 µM | 5.08 µM | – | – | –
4 | NCC1(c2cccc(OCCCO[N+](=O)[O-])c2)C2CC3CC(C2)CC1C3 (stereo not drawn) [Cmpd 4] | 35.2 µM | 34.2 µM | – | – | –
5 | CC12CC3CC(CN)(C1)CC(O[N+](=O)[O-])(C3)C2 (stereo not drawn) [Cmpd 5] | 11.2 µM | 7.18 µM | – | – | –
6 | N[C@@H](CCC(=O)O)C(=O)O [Glutamate CRC, L-glutamate, reference compound] | – | – | stimulated the receptors | – | –
7 | CC12CC3CC(C)(C1)CC(N)(C3)C2.Cl [Memantine-HCl, Memantine, reference compound] | – | – | produced inhibition of the receptors | 44 fold | –
8 | CCC12CC3CC(N)(C1)CC(CO[N+](=O)[O-])(C3)C2 (stereo not drawn) [NM-004, reference compound] | 25.9 µM | 21 µM | – | – | –
9 | CCC12CC3(N)CC(CC)(C1)CC(O[N+](=O)[O-])(C3)C2 [YQW-036, Nitrosynapsin, reference compound] | 10.1 µM | 6.8 µM | – | – | –
10 | NC12CC3CC(CC(C3)C1)C2 [amantadine] | – | – | – | – | 16 fold
